Our source for the GI50 and TGI values is PubChem BioAssay (NCI).

Several values for one entry are separate records, joined by “and”; a condition that tells them apart may be missing. Identical values can stand only once.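 Assay format: 96-well plates, 48-hour exposure. Abbreviation: GI50, concentration required for 50% inhibition of growth. The concentration for full growth arrest is given as TGI.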

Assay in all cases: DTP human tumour cell line panel, 48 h
Assay [1] deals with KM12 colon.
Assay [2] has as its system ACHN renal.
Assay [3] concerns OVCAR-3 ovarian.
The subject of assay [4] is SF-295 CNS.
Assay [5] relates to NCI-H23 lung.
Assay [6] concerns SW-620 colon.
Assay [7] has as its system SN12C renal.
The subject of assay [8] is UACC-62 melanoma.
Assay [9] relates to HS 578T breast.
Assay [10] has as its system PC-3 prostate.

Regarding `CCN(Cc1ccccc1Cl)c1ccc(CO)c(Cl)c1`, the GI50 is 13.4 µM in [1]; 13.7 µM in assay [2]; 0.774 µM in [3]; 0.775 µM in assay [4]; 7.44 µM in assay [5]; 1.61 µM in [6]. Besides, the GI50 in assay [7] was 11.5 µM; in assay [8] it was 0.152 µM; in assay [9], 16 µM; in assay [10], 12.5 µM. Besides, the total growth inhibition concentration (TGI) in assay [1] was 28.7 µM; in assay [2] it was 27.3 µM; in [3] it was 4.32 µM; in assay [4], 7.45 µM; in assay [5] it was 22.6 µM; in assay [6], 16.8 µM. The TGI in assay [7] is 24 µM; in [8], 1.63 µM; in assay [9], 38.7 µM; in assay [10] it was 25.8 µM.

In the case of `O=S1(=O)NC2CCC3NS(=O)(=O)NC4CCC(N1)N4S(=O)(=O)N23` (stereo not drawn), the TGI in assay [1], in assay [2], in assay [3], in assay [4], in [5] and in assay [6] was more than 100 µM in each case. Further, the TGI in [7], in [8], in [9] and in assay [10] was more than 100 µM throughout.

On to `CCOC(=O)c1ccc2c(c1)nc(/C=C/c1ccc(Cl)cc1)n2-c1cc(C(C)(C)C)[nH]n1`, for which the GI50 in assay [1] was 12.9 µM; in [2], 2.03 µM; in [3], 2.86 µM; in assay [4], 2.63 µM; in [5] it was 19.3 µM; in assay [6], 12.8 µM. The GI50 in [7] was 7.3 µM; in [8], 1.47 µM; in [9] it was 3.6 µM; in assay [10], 5.85 µM. Besides, the concentration for total growth inhibition (TGI) in assay [1] is more than 100 µM; in assay [2], 5.75 µM; in assay [3] it was 8.26 µM; in [4], 8.82 µM; in assay [5], more than 100 µM; in [6], more than 100 µM. Also, the TGI in assay [7] worked out at 81 µM; in assay [8] it was 4.79 µM; in assay [9], 61.8 µM; in assay [10] it was 47 µM.

Take `CCOc1ccc2c(C)cc(=O)oc2c1`: the concentration for total growth inhibition (TGI) in assay [1], in [2], in assay [3], in [4], in assay [5] and in [6] was more than 100 µM throughout. Also, the TGI in assay [7], in assay [8], in assay [9] and in assay [10] was more than 100 µM in each case.

`C=C1CC[C@@H]2[C@](C)(COC(C)=O)[C@H](OC(C)=O)CC[C@@]2(C)[C@@H]1CC(Nc1ccc(S(=O)(=O)Nc2cc(C)on2)cc1)C1=CCOC1=O` (stereo partly drawn): the GI50 was 1.83 µM in assay [1]; 1.71 µM in assay [2]; 1.66 µM in [3]; 8.13 µM in [4]; 2.31 µM in assay [5]; 1.32 µM in assay [6]. Moreover, the GI50 in assay [7] was 1.73 µM; in assay [8], 2.13 µM; in [9], 3.92 µM; in [10], 1.98 µM. For the same compound, the total growth inhibition concentration (TGI) was found to be 3.69 µM in assay [1]; 3.48 µM in assay [2]; 3.09 µM in assay [3]; 21 µM in assay [4]; 5.9 µM in [5]; 2.91 µM in assay [6]. Also, the concentration for total growth inhibition (TGI) in [7] turned out to be 4.52 µM; in [8] it was 7.06 µM; in [9] it was 26.7 µM; in assay [10], 4.31 µM.

For the compound `Cc1cc2nc3ccc(=[N+](C)C)cc-3sc2cc1N`, the concentration for 50% growth inhibition (GI50) in assay [1] was 0.401 µM and 0.771 µM; in assay [2] it was 0.844 µM and 1.1 µM; in [3] it was 0.178 µM and 0.26 µM; in [4], 0.473 µM and 0.554 µM; in [5] it was 0.388 µM and 0.381 µM; in [6], 0.289 µM and 1.13 µM. The GI50 was 0.821 µM and 1.15 µM in assay [7]; 0.541 µM and 1.07 µM in assay [8]; 1.49 µM and 0.311 µM in assay [9]; 0.121 µM and 0.173 µM in [10]. For the same compound, the total growth inhibition concentration (TGI) was 2.28 µM and 18.1 µM and 2.95 µM in assay [1]; 0.992 µM and 9.89 µM and 1.25 µM in assay [3]; 5.27 µM and 14.5 µM and 4.83 µM in assay [4]; 2.78 µM and 9.3 µM and 2.51 µM in assay [5]; 1.24 µM and 9.68 µM and 3.05 µM in assay [6]; 3.7 µM and 10.6 µM and 2.52 µM in [7]. Further, the total growth inhibition concentration (TGI) is 2.21 µM and 5.49 µM and 4.52 µM in assay [8]; 2.65 µM and 7.2 µM and 3.43 µM in assay [10].

For `O=[N+]([O-])c1ccc(Sc2nc(Cl)nc(NC3CCCC3)n2)cc1`, the GI50 is more than 10 µM in assay [1]; more than 10 µM in assay [2]; more than 10 µM in [3]; more than 10 µM in [4]; more than 10 µM in [5]; 4.78 µM in assay [6]. For the same compound, the GI50 in assay [7], in assay [8], in [9] and in [10] was more than 10 µM in each case. Moreover, the TGI in assay [1], in [2], in [3], in assay [4], in assay [5] and in [6] was more than 10 µM throughout. Moreover, the TGI in assay [7], in assay [8], in [9] and in [10] was more than 10 µM throughout.

On to `C/C(=N\NC(=S)N1CCN(C2CCCCCC2)CC1)c1ccccn1`, for which the GI50 in assay [1] is 0.0229 µM; in assay [2], 0.00121 µM; in assay [4] it was 0.00302 µM; in assay [6], 0.407 µM; in assay [7] it was 2.02 µM. Also, the TGI in assay [1] was 3.13 µM; in assay [2], 2.7 µM; in [3] it was 1.74 µM; in [4], 5.67 µM and 2.91 µM; in assay [5], 5.77 µM; in assay [6] it was 3.83 µM and 1.91 µM. For the same compound, the concentration for total growth inhibition (TGI) was 2.96 µM in assay [7], 1.95 µM in assay [8], 4.63 µM in assay [9] and 2.07 µM in [10].

On to `O=C1C(Nc2ccc(Br)cc2)=C(I)C(=O)c2ncccc21`, for which the GI50 in [1] was 2.05 µM; in assay [2], 0.738 µM; in assay [3], 0.154 µM; in [4], 7.56 µM; in assay [5], 0.829 µM; in [6], 0.531 µM. The GI50 in assay [7] was 0.828 µM; in assay [8] it was 1.16 µM; in assay [9], 1.59 µM; in assay [10], 0.888 µM. Also, the TGI is 8.41 µM in [1]; 1.56 µM in assay [2]; 0.524 µM in assay [3]; 14.9 µM in assay [4]; 2.14 µM in [5]; 1.51 µM in assay [6]. The TGI is 1.74 µM in assay [7], 2.96 µM in assay [8], 26 µM in assay [9] and 6.44 µM in [10].
